Among the data in US10174007B2, “Substituted 3-azabicyclo[3.1.0]hexanes as ketohexokinase inhibitors” (Pfizer Inc., priority 2015, dated 2019) are IC50 values, retold here.

The structures appear in SMILES notation.

The target in the assay is KHK-C (Homo sapiens (Human), UniProt P50053). Briefly: Assay A: coupled-enzyme KHK absorbance assay, 10 nM KHK-C. Conditions: read-out: IC50 (nM) Assay A (Table 4); 10 nM KHK-C, 0.8 mM fructose, 0.2 mM ATP; avg of (#) runs.
Chain of KHK-C (P50053 whole entry): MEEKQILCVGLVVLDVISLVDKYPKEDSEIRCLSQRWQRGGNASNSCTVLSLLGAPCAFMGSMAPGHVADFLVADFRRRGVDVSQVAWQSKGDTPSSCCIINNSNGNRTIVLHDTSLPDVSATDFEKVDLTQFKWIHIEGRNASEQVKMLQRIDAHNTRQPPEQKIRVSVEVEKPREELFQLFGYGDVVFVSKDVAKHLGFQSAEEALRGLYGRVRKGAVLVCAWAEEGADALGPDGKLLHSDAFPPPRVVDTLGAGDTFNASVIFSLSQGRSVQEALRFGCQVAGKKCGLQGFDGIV
Text: A screening assay was developed for KHK involving a coupled enzyme system which used the product of the KHK reaction to drive an absorbance signal in kinetic mode. KHK takes fructose and ATP and converts it to F1P and ADP. ADP then serves as substrate to pyruvate kinase which converts PEP to pyruvate which is then reduced to lactate by lactate dehydrogenase with the concomitant oxidation of NADH to NAD+. The resulting depletion of NADH was monitored by measuring absorbance at 340 nm.
Recombinant human KHK-C and KHK-A were expressed in E. coli as a His-tagged fusion protein and purified using Ni-NTA chromatography.
Compounds were prepared in DMSO as 4 mM stocks, diluted using an 11-point half-log scheme on a Biomek FX (Beckman Coulter), and incubated at rt for 30 minutes with the reaction mixture containing 50 mM HEPES, pH 7.4, 140 mM KCl, 3.5 mM MgCl2, 0.8 mM fructose, 2 mM TCEP, 0.8 mM PEP, 0.7 mM NADH, 0.01% Triton X-100, 30 U/mL pyruvate kinase-lactate dehydrogenase, and 10 nM purified KHK-C. The compound concentration in each well ranged from 1 nM to 100 μM. The reaction was initiated with the addition of 0.2 mM ATP. The absorbance was measured for 30 minutes on a SpectraMax reader (Molecular Devices) after ATP was added. The concentrations provided are based on the final mixture volume of 40 μL (referred to as the final concentration).
Controls: N8-(cyclopropylmethyl)-N4-(2-(methylthio)phenyl)-2-(piperazin-1-yl)pyrimido[5,4-d]pyrimidine-4,8-diamine at 2 μM final concentration was used as high percent effect (HPE) control, and 2.5% DMSO which was present in all reaction wells was used as zero percent effect (ZPE) control. Reaction rates were obtained for 300-1800 seconds time window in units of 1000*AU/min (absorbance unit per minute), and average values for ZPE and HPE controls from 16 wells each were calculated, AveZPE and AveHPE, respectively.
Percent inhibition (% inhibition) was calculated for each well using this equation:
For each compound tested, the IC50 provided is the average based on at least two separate assays conducted on separate days.
By IC50 is commonly meant the concentration that gives 50% inhibition. Take `Cc1c(C(F)F)nc(N2C[C@@](C)(O)[C@@H]2C)nc1N1C[C@@H]2[C@@H](CC(=O)O)[C@@H]2C1` [Example 25, [(1R,5S,6R)-3-{6-(difluoromethyl)-2-[(2S,3R)-3-hydroxy-2,3-dimethylazetidin-1-yl]-5-methylpyrimidin-4-yl}-3-azabicyclo[3.1.0]hex-6-yl]acetic acid]: the half-inhibitory concentration (IC50) was 259 nM.

Regarding `Cc1c(N2C[C@@H]3[C@@H](CC(=O)O)[C@@H]3C2)nc(N2C[C@@](C)(O)[C@@H]2C)nc1C(F)(F)F` [Example 26, [(1R,5S,6R)-3-{2-[(2S,3R)-3-hydroxy-2,3-dimethylazetidin-1-yl]-5-methyl-6-(trifluoromethyl)pyrimidin-4-yl}-3-azabicyclo[3.1.0]hex-6-yl]acetic acid], the IC50 was 63.6 nM.

`C[C@H]1[C@H](O)CN1c1cc(N2C[C@@H]3[C@@H](CC(=O)O)[C@@H]3C2)cc(C(F)(F)F)n1` [Example 27, [(1R,5S,6R)-3-{2-[(2S,3R)-3-hydroxy-2-methylazetidin-1-yl]-6-(trifluoromethyl)pyridin-4-yl}-3-azabicyclo[3.1.0]hex-6-yl]acetic acid]: the IC50 is 109 nM.

With `C[C@H]1CCCN1c1nc(N2C[C@@H]3[C@@H](CC(=O)O)[C@@H]3C2)cc(C(F)(F)F)n1` [Example 28, [(1R,5S,6R)-3-{2-[(2S)-2-methylpyrrolidin-1-yl]-6-(trifluoromethyl)pyrimidin-4-yl}-3-azabicyclo[3.1.0]hex-6-yl]acetic acid], the 50% inhibitory concentration (IC50) came to 120 nM.

As for `COc1c(C(F)F)nc(N2C[C@@H](O)[C@@H]2C)nc1N1C[C@@H]2[C@@H](CC(=O)O)[C@@H]2C1` [Example 29, [(1R,5S,6R)-3-{6-(difluoromethyl)-2-[(2S,3R)-3-hydroxy-2-methylazetidin-1-yl]-5-methoxypyrimidin-4-yl}-3-azabicyclo[3.1.0]hex-6-yl]acetic acid], the IC50 turned out to be 265 nM.

`C[C@H]1[C@H](O)CN1c1nc(N2C[C@@H]3[C@@H](CC(=O)O)[C@@H]3C2)nc(C(F)(F)F)n1` [Example 30, [(1R,5S,6R)-3-{4-[(2S,3R)-3-hydroxy-2-methylazetidin-1-yl]-6-(trifluoromethyl)-1,3,5-triazin-2-yl}-3-azabicyclo[3.1.0]hex-6-yl]acetic acid]: the IC50 was found to be 509 nM.

`N#Cc1c(C(F)(F)F)cc(N2C[C@@H]3[C@@H](CC(=O)O)[C@@H]3C2)nc1C1CCC1` [Example 31, {(1R,5S,6s)-3-[5-cyano-6-cyclobutyl-4-(trifluoromethyl)pyridin-2-yl]-3-azabicyclo[3.1.0]hex-6-yl}acetic acid]: the half-inhibitory concentration (IC50) was determined as 30 nM.

Regarding `C[C@H]1[C@H](O)CN1c1cc(N2C[C@@H]3[C@@H](CC(=O)O)[C@@H]3C2)nc(C(F)(F)F)n1` [Example 32, [(1R,5S,6R)-3-{6-[(2S,3R)-3-hydroxy-2-methylazetidin-1-yl]-2-(trifluoromethyl)pyrimidin-4-yl}-3-azabicyclo[3.1.0]hex-6-yl]acetic acid], the concentration for half-maximal inhibition (IC50) came to 1760 nM.

Regarding `Cc1c(N2C[C@@H]3[C@@H](CC(=O)O)[C@@H]3C2)nc(N2C[C@@H](O)[C@@H]2C)nc1C(C)(F)F` [Example 33, [(1R,5S,6R)-3-{6-(1,1-difluoroethyl)-2-[(2S,3R)-3-hydroxy-2-methylazetidin-1-yl]-5-methylpyrimidin-4-yl}-3-azabicyclo[3.1.0]hex-6-yl]acetic acid], the IC50 worked out at 114 nM.

Take `C[C@H]1[C@H](O)CN1c1cc(N2C[C@@H]3[C@@H](CC(=O)O)[C@@H]3C2)cc(C(C)(F)F)n1` [Example 34, [(1R,5S,6R)-3-{2-(1,1-difluoroethyl)-6-[(2S,3R)-3-hydroxy-2-methylazetidin-1-yl]pyridin-4-yl}-3-azabicyclo[3.1.0]hex-6-yl]acetic acid]: the 50% inhibitory concentration (IC50) was determined as 331 nM.

As for `C[C@H]1C[C@H](O)CN1c1nc(N2C[C@@H]3[C@@H](CC(=O)O)[C@@H]3C2)c(Cl)c(C(F)(F)F)n1` [Example 35, [(1R,5S,6R)-3-{5-chloro-2-[(2S,4S)-4-hydroxy-2-methylpyrrolidin-1-yl]-6-(trifluoromethyl)pyrimidin-4-yl}-3-azabicyclo[3.1.0]hex-6-yl]acetic acid], the half-maximal inhibitory concentration (IC50) worked out at 188 nM.

Regarding `C[C@@H]1N(c2nc(C(F)F)c(Cl)c(N3C[C@@H]4[C@@H](CC(=O)O)[C@@H]4C3)n2)C[C@@]1(C)O` [Example 36, [(1R,5S,6R)-3-{5-chloro-6-(difluoromethyl)-2-[(2S,3R)-3-hydroxy-2,3-dimethylazetidin-1-yl]pyrimidin-4-yl}-3-azabicyclo[3.1.0]hex-6-yl]acetic acid], the IC50 worked out at 103 nM.

Take `N#Cc1c(C(F)F)cc(N2C[C@@H]3[C@@H](CC(=O)O)[C@@H]3C2)nc1N1CCCC1` [Example 37, {(1R,5S,6s)-3-[5-cyano-4-(difluoromethyl)-6-(pyrrolidin-1-yl)pyridin-2-yl]-3-azabicyclo[3.1.0]hex-6-yl}acetic acid]: the IC50 is 58.3 nM.

In the case of `CC1CCCN1c1nc(N2C[C@@H]3[C@@H](CC(=O)O)[C@@H]3C2)cc(C(F)F)c1C#N` (stereo partly drawn) [Example 38, {(1R,5S,6s)-3-[5-cyano-4-(difluoromethyl)-6-(2-methylpyrrolidin-1-yl)pyridin-2-yl]-3-azabicyclo[3.1.0]hex-6-yl}acetic acid], the half-maximal inhibitory concentration (IC50) was found to be 25.3 nM.

Turning to `CC1CCCCN1c1nc(N2C[C@@H]3[C@@H](CC(=O)O)[C@@H]3C2)cc(C(F)(F)F)n1` (stereo partly drawn) [Example 39, {(1R,5S,6s)-3-[2-(2-methylpiperidin-1-yl)-6-(trifluoromethyl)pyrimidin-4-yl]-3-azabicyclo[3.1.0]hex-6-yl}acetic acid], the 50% inhibitory concentration (IC50) is 24.8 nM.

`CCc1c(C(F)F)nc(N2C[C@@H](O)[C@@H]2C)nc1N1C[C@@H]2[C@@H](CC(=O)O)[C@@H]2C1` [Example 41, [(1R,5S,6R)-3-{6-(difluoromethyl)-5-ethyl-2-[(2S,3R)-3-hydroxy-2-methylazetidin-1-yl]pyrimidin-4-yl}-3-azabicyclo[3.1.0]hex-6-yl]acetic acid]: the concentration for half-maximal inhibition (IC50) was found to be 111 nM.

Turning to `Cc1c(N2C[C@@H]3[C@@H](CC(=O)O)[C@@H]3C2)nc(N2CC[C@@H]2C)nc1C(C)(F)F` [Example 44, [(1R,5S,6R)-3-{6-(1,1-difluoroethyl)-5-methyl-2-[(2S)-2-methylazetidin-1-yl]pyrimidin-4-yl}-3-azabicyclo[3.1.0]hex-6-yl]acetic acid], the IC50 was 51.4 nM.

Consider `C[C@H]1[C@H](O)CN1c1nc(C(F)F)c(C2CC2)c(N2C[C@@H]3[C@@H](CC(=O)O)[C@@H]3C2)n1` [Example 45, [(1R,5S,6R)-3-{5-cyclopropyl-6-(difluoromethyl)-2-[(2S,3R)-3-hydroxy-2-methylazetidin-1-yl]pyrimidin-4-yl}-3-azabicyclo[3.1.0]hex-6-yl]acetic acid], for which the IC50 is 238 nM.

Consider `N#Cc1c(C(F)(F)F)cc(N2C[C@@H]3[C@@H](CC(=O)O)[C@@H]3C2)nc1N1CCC1` [Example 46, {(1R,5S,6s)-3-[6-(azetidin-1-yl)-5-cyano-4-(trifluoromethyl)pyridin-2-yl]-3-azabicyclo[3.1.0]hex-6-yl}acetic acid], for which the 50% inhibitory concentration (IC50) was 21.5 nM.

For the compound `O=C(O)C[C@@H]1[C@H]2CN(c3cc(C(F)(F)F)nc(N4CCC4)n3)C[C@@H]12` [Example 47, {(1R,5S,6s)-3-[2-(azetidin-1-yl)-6-(trifluoromethyl)pyrimidin-4-yl]-3-azabicyclo[3.1.0]hex-6-yl}acetic acid], the concentration for half-maximal inhibition (IC50) came out at 619 nM.

For `C[C@@H]1N(c2nc(N3C[C@@H]4[C@H](C3)[C@H]4CS(C)(=O)=O)c(Cl)c(C(F)(F)F)n2)C[C@@]1(C)O` [Example 48, (2S,3R)-1-[5-chloro-4-{(1R,5S,6S)-6-[(methylsulfonyl)methyl]-3-azabicyclo[3.1.0]hex-3-yl}-6-(trifluoromethyl)pyrimidin-2-yl]-2,3-dimethylazetidin-3-ol], the IC50 worked out at 1360 nM.

As for `N#Cc1c(C(F)F)cc(N2C[C@@H]3[C@@H](CC(=O)O)[C@@H]3C2)nc1NC1CCC1` [Example 51, {(1R,5S,6s)-3-[5-cyano-6-(cyclobutylamino)-4-(difluoromethyl)pyridin-2-yl]-3-azabicyclo[3.1.0]hex-6-yl}acetic acid], the half-inhibitory concentration (IC50) was determined as 150 nM.

On to `C[C@H]1[C@H](O)CN1c1nc(N2C[C@@H]3[C@@H](CCC(=O)O)[C@@H]3C2)cc(C(F)(F)F)c1C#N` [Example 52, 3-[(1R,5S,6R)-3-{5-cyano-6-[(2S,3R)-3-hydroxy-2-methylazetidin-1-yl]-4-(trifluoromethyl)pyridin-2-yl}-3-azabicyclo[3.1.0]hex-6-yl]propanoic acid], for which the IC50 amounted to 82.5 nM.

For the compound `C[C@H]1[C@H](O)CN1c1nc(N2C[C@@H]3[C@@H](CC(=O)O)[C@@H]3C2)c(C#N)c(C(F)(F)F)n1` [Example 53, [(1R,5S,6R)-3-{5-cyano-2-[(2S,3R)-3-hydroxy-2-methylazetidin-1-yl]-6-(trifluoromethyl)pyrimidin-4-yl}-3-azabicyclo[3.1.0]hex-6-yl]acetic acid], the half-maximal inhibitory concentration (IC50) was 21 nM.

Turning to `C[C@H]1[C@H](O)CN1c1nc(N2C[C@@H]3[C@@H](CC(=O)O)[C@@H]3C2)nc(C(F)(F)F)c1C#N` [Example 54, [(1R,5S,6R)-3-{5-cyano-4-[(2S,3R)-3-hydroxy-2-methylazetidin-1-yl]-6-(trifluoromethyl)pyrimidin-2-yl}-3-azabicyclo[3.1.0]hex-6-yl]acetic acid], the IC50 turned out to be 19 nM.

As for `C[C@@H]1N(c2nc(N3C[C@@H]4[C@@H](CC(=O)O)[C@@H]4C3)cc(C(F)F)c2C#N)C[C@@]1(C)O` [Example 55, [(1R,5S,6R)-3-{5-cyano-4-(difluoromethyl)-6-[(2S,3R)-3-hydroxy-2,3-dimethylazetidin-1-yl]pyridin-2-yl}-3-azabicyclo[3.1.0]hex-6-yl]acetic acid], the IC50 was found to be 13.7 nM.
